One series concerns hAPP Tg mice. The series can be described thus: Morris Water Maze in hAPP transgenic mice. In kind it is in vivo. On the procedure: i) Introduction • The study was designed to evaluate the efficacy of the test substance (XG-102, SEQ ID NO: 11) on behavioral, biochemical and histological markers using 5 months (±2 weeks) old female hAPP Tg mice. Therefore, mice were treated every two or three weeks up to 4 months and in the end of the treatment period behavior was evaluated in the Morris Water Maze. At sacrifice brain, CSF and blood were collected. Aβ40 and Aβ42 levels were determined in four different brain homogenate fractions as well as in CSF of Tg mice. Plaque load was quantified in the cortex and the hippocampus of 8 Tg animals per treatment group.
ii) Animals • Female Tg mice with a C57BL/6×DBA background and an age of 5 months (±2 week) were randomly assigned to treatment groups 1 to 3 (n=12). […]
v) Morris Water Maze (MWM) • The Morris Water Maze (MWM) task was conducted in a black circular pool of a diameter of 100 cm. […] For the quantification of escape latency (the time [second]—the mouse needed to find the hidden platform and therefore to escape from the water), of pathway (the length of the trajectory [meter] to reach the target) and of the abidance in the goal quadrant a computerized tracking system was used. […] The camera detected the signal of the light emitting diode (LED), which was fixed with a little hairgrip on the mouse's tail. […]

Series [1] concerns recombinant JNK1, JNK2 and JNK3. The series is described as follows: Solid phase kinase assay, phosphorylation of c-Jun, ATF2 and Elk1 by recombinant JNKs. In kind it is biochemical. The settings on record: GST-Jun (aa 1-73), JNK1, JNK2, JNK3, 0-250 μM dosage study. On the procedure: The effects of the peptides on JNKs-mediated phosphorylation of their target transcription factors were investigated in vitro. Recombinant and non activated JNK1, JNK2 and JNK3 were produced using a TRANSCRIPTION AND TRANSLATION rabbit reticulocyte lysate kit (Promega) and used in solid phase kinase assays with c-Jun, ATF2 and Elk1, either alone or fused to glutathione-S-transferase (GST), as substrates. Dose response studies were performed wherein L-TAT or L-TAT-IB1(s) peptides (0-25 μM) were mixed with the recombinant JNK1, JNK2, or JNK3 kinases in reaction buffer (20 mM Tris-acetate, 1 mM EGTA, 10 mM p-nitrophenyl-phosphate (pNPP), 5 mM sodium pyrophosphate, 10 mM p-glycerophosphate, 1 mM dithiothreitol) for 20 minutes. The kinase reactions were then initiated by the addition of 10 mM MgCl2 and 5 pCi ^33P-dATP and 1 μg of either GST-Jun (aa 1-89), GST-AFT2 (aa 1-96) or GST-ELK1 (aa 307-428). GST-fusion proteins were purchased from Stratagene (La Jolla, Calif.).
Ten μL of glutathione-agarose beads were also added to the mixture. Reaction products were then separated by SDS-PAGE on a denaturing 10% polyacrylamide gel. Gels were dried and subsequently exposed to X-ray films (Kodak). […] The ability of D-TAT, D-TAT-IB1(s) and L-TAT-IB1(s) peptides (0-250 μM dosage study) to inhibit GST-Jun (aa 1-73) phosphorylation by recombinant JNK1, JNK2, and JNK3 by were analyzed as described above. […]

SMILES strings stand for the structures.

Regarding `CC(C)C[C@@H](NC(=O)[C@@H](Cc1ccccc1)NC(=O)[C@H]1CCCN1C(=O)[C@@H](CCC(N)=O)NC(=O)[C@H](NC(=O)[C@H]1CCCN1C(=O)[C@@H](CCCNC(=N)N)NC(=O)[C@@H](CO)NC(=O)[C@@H](CCC(N)=O)NC(=O)[C@H](N)CC(=O)O)C(C)C)C(=O)N[C@H](CC(N)=O)C(=O)N[C@H](CC(C)C)C(=O)N[C@@H](C(=O)N[C@@H](C(=O)N1CCC[C@@H]1C(=O)N[C@H](CCCNC(=N)N)C(=O)N[C@H](CCCCN)C(=O)N1CCC[C@@H]1C(=O)N[C@H](CCCNC(=N)N)C(=O)N1CCC[C@@H]1C(=O)N1CCC[C@@H]1C(=O)N[C@H](CCCNC(=N)N)C(=O)N[C@H](CCCNC(=N)N)C(=O)N[C@H](CCCNC(=N)N)C(=O)N[C@H](CCC(N)=O)C(=O)N[C@H](CCCNC(=N)N)C(=O)N[C@H](CCCNC(=N)N)C(=O)N[C@H](CCCCN)C(=O)N[C@H](CCCCN)C(=O)N[C@H](CCCNC(=N)N)C(=O)NCC(=O)O)[C@H](C)O)[C@H](C)O` [XG-102], the “cytotoxicity at effective concentrations” value with murine macrophages is listed as “non-cytotoxic concentrations”. In addition, the “LPS-induced TNFa, IL-6 and Rantes release” value in the series on murine macrophages (murine macrophages) is “reducing LPS-induced TNFa, IL-6 and Rantes release in murine macrophages”. For the same compound, the “learning performance in the MWM” value with hAPP Tg mice (0.1 mg/kg) was “a tendency to have worse learning performance between day 1 and day 4”. For the same compound, the “spatial learning in the MWM” value in the series on hAPP Tg mice (0.1 mg/kg every two weeks or 10 mg/kg every three weeks s.c., four months) was “remained widely uninfluenced”. Moreover, the “efficiency in decreasing JNK-mediated phosphorylation of c-Jun, fold less than L-TAT-IB1(s)” value in series [1] is listed as 10-20 fold.

Values taken from patent US9006185B2, “Use of cell-permeable peptide inhibitors of the JNK signal transduction pathway for the treatment of various diseases” (Xigen Inflammation Ltd., priority 2008, dated 2015).
